This note sets out measurements from ChEMBL document CHEMBL3112424, “Discovery and optimization of pyrimidone indoline amide PI3Kβ inhibitors for the treatment of phosphatase and tensin homologue (PTEN)-deficient cancers” (J Med Chem, 2014).

For orientation: IC50 means the concentration at which inhibition is half-maximal. What is called pKa is the negative logarithm of the acid dissociation constant. A low value points to a stronger acid or weaker base. Usually fraction remaining stands for the share of the starting amount still present when the sample was taken. A high value points to less turnover. What is called solubility is the dissolved amount per volume that the medium holds. A higher solubility goes with a readily soluble substance. As usually defined, the Papp is a coefficient for how fast a substance crosses the barrier. Usually logD stands for the decadic logarithm of the distribution of all forms, ionised or not, between an organic phase and buffer at a given pH. Lower therefore signals a more hydrophilic compound. A word on the T/C: it is the ratio of treated to control.

For data set [1], the target named is T1, Phosphatidylinositol 4,5-bisphosphate 3-kinase catalytic subunit beta isoform (Homo sapiens, UniProt P42338). The data set can be described thus: Inhibition of PI3Kbeta-mediated Akt phosphorylation at S473 in PTEN-deficient human PC3 cells after 0.5 to 2 hrs by Immunoblotting assay. In kind it is cell-based, PC-3. On the technique in general: Immunoblotting shows a protein as a band on a membrane.

The nature of data set [2]: Dissociation constant, pKa of the compound. In kind it is physicochemical.
Data set [3] in a line: Metabolic stability in mouse liver microsomes at 5 uM after 20 mins. The note with it: liver microsomes.
The target in data set [4] is T1, Phosphatidylinositol 4,5-bisphosphate 3-kinase catalytic subunit beta isoform. The data set can be described thus: Inhibition of N-terminal ploy-His-tagged human PI3Kbeta expressed in baculovirus-infected sf21 cells using PI(4,5)P2 as substrate after 15 mins by HTRF assay. Background: Time-resolved FRET reads energy transfer from a long-lived donor to a nearby acceptor.

Data set [5] addresses Phosphatidylinositol 4,5-bisphosphate 3-kinase catalytic subunit gamma isoform (Homo sapiens, UniProt P48736). The data set can be described thus: Inhibition of C-terminal ploy-His-tagged human PI3Kgamma expressed in baculovirus-infected sf9 cells using PI(4,5)P2 as substrate after 15 mins by HTRF assay.
A short description of data set [6]: Solubility of the compound in phosphate buffer at pH 7.4 by HPLC analysis. The note with it: phosphate buffer.
The target of data set [7] is T2, Phosphatidylinositol 4,5-bisphosphate 3-kinase catalytic subunit delta isoform (Homo sapiens, UniProt O00329).
T2 sequence (O00329 whole entry): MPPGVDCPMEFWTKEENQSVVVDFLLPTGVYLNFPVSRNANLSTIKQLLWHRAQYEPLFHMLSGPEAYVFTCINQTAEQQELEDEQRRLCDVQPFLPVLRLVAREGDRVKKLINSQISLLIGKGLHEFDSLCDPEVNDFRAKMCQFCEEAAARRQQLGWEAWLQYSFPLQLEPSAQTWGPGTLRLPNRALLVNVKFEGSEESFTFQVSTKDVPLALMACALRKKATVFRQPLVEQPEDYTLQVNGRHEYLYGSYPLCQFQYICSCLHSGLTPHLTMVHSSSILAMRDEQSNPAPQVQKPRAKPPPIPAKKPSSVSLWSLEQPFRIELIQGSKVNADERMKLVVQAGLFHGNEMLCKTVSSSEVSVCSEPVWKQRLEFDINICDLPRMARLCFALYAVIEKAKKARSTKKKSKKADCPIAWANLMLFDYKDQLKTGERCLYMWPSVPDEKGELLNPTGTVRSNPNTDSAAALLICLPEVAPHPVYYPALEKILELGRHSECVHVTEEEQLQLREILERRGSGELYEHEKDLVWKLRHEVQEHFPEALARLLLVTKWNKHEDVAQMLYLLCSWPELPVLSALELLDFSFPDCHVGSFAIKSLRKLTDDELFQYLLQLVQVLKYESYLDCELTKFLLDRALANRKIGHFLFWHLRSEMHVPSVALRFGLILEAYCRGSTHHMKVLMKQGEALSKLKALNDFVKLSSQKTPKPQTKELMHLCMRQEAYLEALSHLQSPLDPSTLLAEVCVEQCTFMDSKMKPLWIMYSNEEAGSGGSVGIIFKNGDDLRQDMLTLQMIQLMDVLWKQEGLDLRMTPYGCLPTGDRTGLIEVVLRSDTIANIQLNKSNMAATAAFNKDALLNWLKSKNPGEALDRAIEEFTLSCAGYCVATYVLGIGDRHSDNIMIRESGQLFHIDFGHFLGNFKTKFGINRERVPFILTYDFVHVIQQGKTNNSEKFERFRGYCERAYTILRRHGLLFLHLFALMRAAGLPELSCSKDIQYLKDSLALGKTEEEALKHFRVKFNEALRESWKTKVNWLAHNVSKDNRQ
Description: Inhibition of N-terminal ploy-His-tagged human PI3Kdelta expressed in baculovirus-infected sf9 cells using PI(4,5)P2 as substrate after 15 mins by HTRF assay.

A short description of data set [8]: Apparent permeability in human Caco2 cells at 5 uM after 20 mins. The note with it: Caco-2. On the technique in general: Caco-2 monolayers are a common model of the intestinal barrier.
For data set [9], the target named is Phosphatidylinositol 4,5-bisphosphate 3-kinase catalytic subunit alpha isoform (Homo sapiens, UniProt P42336). The data set can be described thus: Inhibition of N-terminal ploy-His-tagged human PI3Kalpha expressed in baculovirus-infected sf9 cells using PI(4,5)P2 as substrate after 15 mins by HTRF assay.
A further data set concerns the target Cytochrome P450 3A4 (Homo sapiens, UniProt P08684). Description: Inhibition of recombinant human CYP3A4.
Data set [10] can be described thus: Metabolic stability in human liver microsomes at 5 uM after 20 mins. Conditions: liver microsomes.
Data set [11] in a line: Lipophilicity, log D of the compound. In kind it is physicochemical. Conditions: octanol/water.
Another data set deals with PC-3. The data set can be described thus: Antitumor activity against po dosed PTEN-deficient human PC3 cells xenografted in nude mouse assessed as tumor growth inhibition administered as qd measured for 52 days. In kind it is functional.

Values after ≈ are worked out from the molar mass of the structure shown.

T1 sequence (P42338 whole entry, canonical isoform): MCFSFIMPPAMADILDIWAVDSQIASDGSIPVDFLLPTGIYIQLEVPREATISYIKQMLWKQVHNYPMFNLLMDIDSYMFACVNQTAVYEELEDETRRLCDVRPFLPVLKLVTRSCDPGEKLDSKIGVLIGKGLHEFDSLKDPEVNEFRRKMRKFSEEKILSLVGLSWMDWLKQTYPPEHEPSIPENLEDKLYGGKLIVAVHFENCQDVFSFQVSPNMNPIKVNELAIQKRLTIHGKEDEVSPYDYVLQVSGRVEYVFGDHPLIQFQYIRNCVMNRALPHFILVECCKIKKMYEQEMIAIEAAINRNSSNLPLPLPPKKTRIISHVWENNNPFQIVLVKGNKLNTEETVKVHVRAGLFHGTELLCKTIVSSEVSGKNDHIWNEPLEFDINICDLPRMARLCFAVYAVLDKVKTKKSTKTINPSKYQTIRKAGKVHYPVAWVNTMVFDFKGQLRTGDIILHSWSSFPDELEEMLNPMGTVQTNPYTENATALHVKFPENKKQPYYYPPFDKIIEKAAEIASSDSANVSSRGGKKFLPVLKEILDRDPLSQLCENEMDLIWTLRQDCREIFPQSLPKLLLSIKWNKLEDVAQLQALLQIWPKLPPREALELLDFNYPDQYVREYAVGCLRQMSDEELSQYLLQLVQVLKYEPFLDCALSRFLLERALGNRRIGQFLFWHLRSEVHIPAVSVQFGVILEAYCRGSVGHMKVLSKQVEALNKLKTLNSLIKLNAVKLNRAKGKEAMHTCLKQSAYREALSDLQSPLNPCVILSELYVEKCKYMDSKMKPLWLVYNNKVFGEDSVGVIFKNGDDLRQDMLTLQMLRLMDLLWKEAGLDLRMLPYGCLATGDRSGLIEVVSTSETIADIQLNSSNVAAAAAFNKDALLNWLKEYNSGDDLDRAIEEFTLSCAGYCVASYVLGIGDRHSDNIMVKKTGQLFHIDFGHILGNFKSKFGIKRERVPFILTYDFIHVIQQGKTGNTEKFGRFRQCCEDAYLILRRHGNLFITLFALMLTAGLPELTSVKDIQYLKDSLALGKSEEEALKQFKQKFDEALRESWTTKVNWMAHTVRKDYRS
Sequence of Cytochrome P450 3A4 (P08684 whole entry): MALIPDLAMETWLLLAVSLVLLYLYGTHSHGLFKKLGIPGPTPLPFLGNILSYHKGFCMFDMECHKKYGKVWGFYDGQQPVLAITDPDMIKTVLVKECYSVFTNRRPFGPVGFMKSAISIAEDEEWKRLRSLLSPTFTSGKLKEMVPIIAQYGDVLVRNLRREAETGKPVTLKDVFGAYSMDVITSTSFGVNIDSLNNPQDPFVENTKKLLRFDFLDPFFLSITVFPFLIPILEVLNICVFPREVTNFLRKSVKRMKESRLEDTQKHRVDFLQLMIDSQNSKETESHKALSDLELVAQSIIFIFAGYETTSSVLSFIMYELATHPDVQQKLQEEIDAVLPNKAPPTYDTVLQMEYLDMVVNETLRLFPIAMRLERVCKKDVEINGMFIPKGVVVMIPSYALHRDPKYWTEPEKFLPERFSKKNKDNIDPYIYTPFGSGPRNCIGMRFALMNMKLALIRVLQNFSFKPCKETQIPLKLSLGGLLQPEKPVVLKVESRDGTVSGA
Sequence of Phosphatidylinositol 4,5-bisphosphate 3-kinase catalytic subunit alpha isoform (P42336 whole entry, canonical isoform): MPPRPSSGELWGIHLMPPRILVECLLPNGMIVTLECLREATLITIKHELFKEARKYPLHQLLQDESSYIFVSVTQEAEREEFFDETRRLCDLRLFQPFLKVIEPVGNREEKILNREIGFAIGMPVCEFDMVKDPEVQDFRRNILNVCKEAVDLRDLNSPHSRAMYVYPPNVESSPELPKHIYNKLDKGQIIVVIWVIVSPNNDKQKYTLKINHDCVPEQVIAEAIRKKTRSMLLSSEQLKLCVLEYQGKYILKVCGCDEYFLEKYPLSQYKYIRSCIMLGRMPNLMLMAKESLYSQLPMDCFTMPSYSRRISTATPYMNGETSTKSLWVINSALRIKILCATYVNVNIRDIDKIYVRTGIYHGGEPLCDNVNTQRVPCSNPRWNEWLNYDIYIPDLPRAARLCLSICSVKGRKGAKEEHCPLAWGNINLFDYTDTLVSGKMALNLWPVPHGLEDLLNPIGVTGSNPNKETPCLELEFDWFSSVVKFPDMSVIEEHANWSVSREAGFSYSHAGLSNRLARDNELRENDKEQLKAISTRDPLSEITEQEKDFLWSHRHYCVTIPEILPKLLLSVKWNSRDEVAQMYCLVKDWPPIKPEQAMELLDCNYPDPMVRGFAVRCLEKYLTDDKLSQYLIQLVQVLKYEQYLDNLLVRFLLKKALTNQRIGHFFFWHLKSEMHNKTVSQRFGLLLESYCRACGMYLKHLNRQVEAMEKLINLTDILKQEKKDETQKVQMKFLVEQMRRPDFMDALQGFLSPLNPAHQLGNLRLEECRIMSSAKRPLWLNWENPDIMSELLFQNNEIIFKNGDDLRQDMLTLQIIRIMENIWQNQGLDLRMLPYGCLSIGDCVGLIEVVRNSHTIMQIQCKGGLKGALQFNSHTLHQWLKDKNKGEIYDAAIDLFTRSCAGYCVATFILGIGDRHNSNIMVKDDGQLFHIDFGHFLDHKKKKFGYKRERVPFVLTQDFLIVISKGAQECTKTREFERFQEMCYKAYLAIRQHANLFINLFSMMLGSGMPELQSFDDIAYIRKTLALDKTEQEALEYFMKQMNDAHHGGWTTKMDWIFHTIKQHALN
Sequence of Phosphatidylinositol 4,5-bisphosphate 3-kinase catalytic subunit gamma isoform (P48736 whole entry, canonical isoform): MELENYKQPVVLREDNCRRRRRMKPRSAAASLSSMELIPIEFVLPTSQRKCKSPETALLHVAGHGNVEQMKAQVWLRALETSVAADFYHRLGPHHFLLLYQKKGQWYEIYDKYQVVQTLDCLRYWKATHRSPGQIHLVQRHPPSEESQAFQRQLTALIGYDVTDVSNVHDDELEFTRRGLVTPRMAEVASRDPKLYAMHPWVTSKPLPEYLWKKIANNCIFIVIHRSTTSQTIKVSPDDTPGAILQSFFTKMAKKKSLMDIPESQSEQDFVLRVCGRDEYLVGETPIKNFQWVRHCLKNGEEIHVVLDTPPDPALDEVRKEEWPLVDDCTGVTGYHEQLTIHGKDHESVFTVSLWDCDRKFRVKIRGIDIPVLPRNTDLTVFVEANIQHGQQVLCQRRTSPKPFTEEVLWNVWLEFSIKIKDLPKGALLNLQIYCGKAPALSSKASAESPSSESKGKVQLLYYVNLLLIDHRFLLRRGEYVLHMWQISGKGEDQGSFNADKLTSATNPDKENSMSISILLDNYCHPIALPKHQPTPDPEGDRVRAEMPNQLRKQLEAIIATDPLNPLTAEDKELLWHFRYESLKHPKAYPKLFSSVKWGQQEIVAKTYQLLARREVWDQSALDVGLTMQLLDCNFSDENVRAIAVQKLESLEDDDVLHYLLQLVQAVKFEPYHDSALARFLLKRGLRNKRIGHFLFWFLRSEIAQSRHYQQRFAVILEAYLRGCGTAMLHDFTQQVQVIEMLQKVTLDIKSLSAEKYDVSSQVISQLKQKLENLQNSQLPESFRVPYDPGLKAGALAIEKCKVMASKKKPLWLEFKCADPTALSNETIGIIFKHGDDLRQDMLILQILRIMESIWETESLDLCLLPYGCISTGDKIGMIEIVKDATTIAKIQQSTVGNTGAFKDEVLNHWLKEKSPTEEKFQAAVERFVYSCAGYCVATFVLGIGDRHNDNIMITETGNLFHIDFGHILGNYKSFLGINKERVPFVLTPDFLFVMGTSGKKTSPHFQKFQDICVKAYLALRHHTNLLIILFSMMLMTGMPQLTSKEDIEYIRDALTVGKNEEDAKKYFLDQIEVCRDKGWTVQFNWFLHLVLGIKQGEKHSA

For the compound `O=C(Cc1nc(N2CCOCC2)cc(=O)[nH]1)N1CCc2c(-c3ccncc3)cccc21`, the half-maximal inhibitory concentration (IC50) in data set [1] was found to be 0.094 µM; in data set [4], 0.01 µM; in [5], 1 µM; in [7], 0.022 µM; in data set [9] it was 1 µM; on Cytochrome P450 3A4, 31 µM. The compound also had a pKa in data set [2] of 4.5. The amount remaining at 20 min, 5 µM in [3] was found to be 44%; in data set [10], 43%. Also, in data set [6], the solubility worked out at 69 µM (≈ 28.8 µg/mL). For the same compound, in [8], the Papp at 20 min, 5 µM turned out to be 0.4 ×10⁻⁶ cm/s. The compound further gave a logD in data set [11] of 1.99.

As for `O=C(Cc1nc(N2CCOCC2)cc(=O)[nH]1)N1CCc2c(OC(F)(F)F)cccc21`, the IC50 in data set [1] was 0.054 µM; in [4] it was 0.033 µM; in data set [5], 7.42 µM; in data set [7] it was 0.034 µM; in data set [9], 1 µM; on Cytochrome P450 3A4, 40 µM. In addition, the share remaining at 20 min, 5 µM in data set [3] is 44%; in data set [10], 48%. Moreover, in [6], the solubility is 12 µM (≈ 5.09 µg/mL). Further, the apparent permeability (Papp) at 20 min, 5 µM in data set [8] came out at 4.1 ×10⁻⁶ cm/s.

As for `CC1CN(C(=O)Cc2nc(N3CCOCC3)cc(=O)[nH]2)c2ccccc21` (racemic), the IC50 in data set [1] came to 0.013 µM; in [4], 0.022 µM; in data set [5] it was 10 µM; in [7], 0.087 µM; in data set [9] it was 2.26 µM; at Cytochrome P450 3A4, 40 µM. The amount remaining at 20 min, 5 µM in data set [3] came to 40%; in [10], 47%. The same compound had a solubility in [6] of 3 µM (≈ 1.06 µg/mL). Moreover, the Papp at 20 min, 5 µM in [8] was determined as 7.5 ×10⁻⁶ cm/s.

For the compound `C[C@H]1c2cccc(O)c2C(=O)C2=C(O)[C@]3(O)C(=O)C(C(N)=O)=C(O)[C@@H](N(C)C)[C@@H]3[C@@H](O)[C@@H]21.O` [DOXYCYCLINE], in the data set on PC-3, the T/C turned out to be 49%.

For `O=C(Cc1nc(N2CCOCC2)cc(=O)[nH]1)N1CCc2c(-c3cccnc3)cccc21`, the half-maximal inhibitory concentration (IC50) was 0.053 µM in data set [1]; 0.017 µM in data set [4]; 2.46 µM in [5]; 0.007 µM in data set [7]; 0.361 µM in data set [9]; 40 µM at Cytochrome P450 3A4. Further, the pKa in data set [2] is 4.5. In addition, the figures for the amount remaining at 20 min, 5 µM in data set [3] and in [10] were 49% and 29%, respectively. Moreover, the solubility in data set [6] stood at 60 µM (≈ 25 µg/mL). The Papp at 20 min, 5 µM in data set [8] is 0.8 ×10⁻⁶ cm/s. Also, the logD in data set [11] was determined as 1.99.
